# Test results as given in the NIST ThermoML archive (doi:10.1021/je400830w).
# Numbers after ± are expanded uncertainties.
# Key:
# [1] = refractive index (Na D-line) (dimensionless); details: 100 kPa, Liquid, Standard Abbe refractometry
# [2] = 100 kPa, Liquid; for viscosity: Falling or rolling sphere viscometry; for mass density: Vibrating tube method
structure (smiles),measurement,setting,value
NCCO [2-aminoethan-1-ol],refractive index,[1]; 298.15 K,1.45406 ± 0.00037
same,refractive index,[1]; 303.15 K,1.45241 ± 0.00037
same,refractive index,[1]; 313.15 K,1.449 ± 0.001
same,refractive index,[1]; 323.15 K,1.44522 ± 0.00037
same,refractive index,[1]; 333.15 K,1.44198 ± 0.00037
same,viscosity,[2]; 298.15 K,18.89 ± 0.18 mPa·s
same,mass density,[2]; 298.15 K,1012.38 ± 0.25 kg/m3
same,viscosity,[2]; 303.15 K,15.11 ± 0.14 mPa·s
same,mass density,[2]; 303.15 K,1009.35 ± 0.25 kg/m3
same,viscosity,[2]; 313.15 K,10.03 ± 0.094 mPa·s
same,mass density,[2]; 313.15 K,1002.16 ± 0.24 kg/m3
same,viscosity,[2]; 323.15 K,6.983 ± 0.065 mPa·s
same,mass density,[2]; 323.15 K,994.4 ± 0.24 kg/m3
same,viscosity,[2]; 333.15 K,4.972 ± 0.047 mPa·s
same,mass density,[2]; 333.15 K,986.24 ± 0.24 kg/m3
